{
  "source": "patent US20230073755A1",
  "about": "“USE OF IGF1 IN COMBINATION WITH IGFEC24 IN PREPARATION OF MEDICINE FOR PROMOTING TISSUE REPAIR AND REGENERATION” (Chongqing University, priority 2020, published 2023)",
  "system": "neuronal cells",
  "assay": "Neuroproliferation effect (Edu / DCX immunofluorescence, hippocampal dentate gyrus), adult female SD rats",
  "assay_type": "in vivo",
  "settings": "FIG. 4",
  "method": "In certain embodiments, adult female SD rats were divided into five groups: PBS group, IGF1 group, IGF1Ec group, IGF1-24 group, and IGF1+IGF1Ec24 peptide group, with three rats in each group. The rats in each group were distinguished by ear clipping for subsequent protein injection according to the different body weights of the rats.\nThe rats in each group were injected with PBS, IGF1, IGF1Ec24 peptide, IGF1Ec and IGF1-24 for 7 consecutive days. Recombinant protein IGF1-24 was injected at 100 μg/kg, and the injection of the remaining proteins in each group was converted according to the molar amount of IGF1-24 injection as follows: 90 μg/kg for IGF1, 8.9 μg/kg for IGF1Ec24 peptide, 104 μg/kg for IGF1Ec.\nAfter seven days of protein injection, the intraperitoneal injection of Edu solution at a concentration of 2.5 mg/kg was performed for seven days, so that the final total dose of each rat reached 50 mg/kg. […]\nThe microscope was selected with a 20× lens to observe the fluorescence staining of the dentate gyrus in the whole hippocampal region; the number of immature neurons and the number of newly proliferating neuronal cells in the dentate gyrus of the hippocampus were recorded.",
  "data": [
    {"substance": "IGF1-24: 97 amino acids: amino-terminal 70 identical to IGF1, carboxyl-terminal 24 identical to IGFEc24 peptide, joined by three Gly linkers (SEQ ID NO: 4)", "values": [
      {"measurement": "proliferation of neuronal cells", "result": 10, "unit": "%"}
    ]}
  ]
}
